PMC5630639 (Scientific Reports, 2017)

Columns and labels:
[1] = test system: interphase microtubules in MGC-803 cells; test: Immunofluorescence staining of tubulin; format: cell-based, human; settings: 24 h
Experimental: As the microtubule system plays a vital role in the maintenance of cell shape and basic cellular functions, an immunofluorescence staining assay was performed to study whether compound 28 could disrupt the microtubule dynamics in living cells.
Cell climbing slices were sterilized and placed on the bottom of a 24-well plate for 24 h before MGC-803 cells were incubated in DMSO, different concentrations of 28 or CA-4P solutions were added. The next day the cell climbing slices were fixed by 4% paraformaldehyde for 15 min after washed by PBS for 3 times. 0.5% Triton-X-100 was added and shaked for 20 min. 0.1% BSA was used to block for 30 min and then removed. The cell climbing slices were added α-tubulin antibody (1:100) and incubated overnight at 4 °C in humid box. On the third day the humid box was taken out and balanced at 37 °C for 30 min. The cell climbing slices were washed by PBST for 3 times for each of 3 minutes and coated with FITC antibody (1:500) in a dark place for 1 h at room temperature. DAPI was used to re-stained for 5 min and then removed. The cell climbing slices were sealing by an anti-fluorescence quenching agent and images collected by Laser scanning confocal microscope (Nikon, Japan).

MGC-803 cells = test: Western blotting of apoptosis-related proteins; format: cell-based, human; settings: concentration-dependent
Experimental: We next evaluated whether 28 induces apoptosis in MGC-803 cells by flow cytometry analysis of propidium iodide (PI) and Annexin V stained cells. […] When MGC-803 cells were incubated with 28 at 0.1, 0.2, and 0.3 μM for 24 h, the percentages of early apoptotic cells were 12.4%, 40.5%, and 49.7%, respectively and those of late apoptotic cells 2.1%, 10.1%, and 9.4%, respectively (Fig. 4A). Bcl-2 family proteins were crucial components of mitochondrial stress-induced cellular apoptosis. Thus, the expression of apoptosis-related proteins was also determined.
An Annexin V-FITC/PI kit (KeyGEN BioTECH, Nanjing, China) was used to detect apoptosis. Cells were seeded in 6-well plates and treated with 0, 0.1, 0.2 and 0.3 µM of 28 for 24 h. Then MGC-803 cells were collected and suspended in binding buffer containing Annexin V-FITC (0.5 mg/mL) and PI (0.5 mg/mL) and incubated in dark for 20 min and analyzed by flow cytometry (Becton, Dickinson and Company, NJ). The apoptosis related proteins of western blot analysis were conducted according to our previously reported method[31],[32].

Compound: COc1cc(N2C(=O)[C@H](c3cccs3)[C@H]2c2cccc(N=[N+]=[N-])c2)cc(OC)c1OC (relative stereo) [Compound 28, trans-4-(3-azidophenyl)-3-(thiophen-2-yl)-1-(3,4,5-trimethoxyphenyl)azetidin-2-one]
- depolymerization of interphase microtubules ([1]; 0.075 μM): moderately depolymerized
- depolymerization of interphase microtubules ([1]; 0.3 μM): much stronger
- expression of Bcl-2 (MGC-803 cells): decreased
- expression of cleaved caspase-3, caspase-9 and PARP (MGC-803 cells): increased
- protein expression of BAX (MGC-803 cells): increased
